Measured values from ChEMBL document CHEMBL1145593, “Design, synthesis and evaluation of potent thymidylate synthase X inhibitors” (Bioorg Med Chem Lett, 2008).
Active and inactive are the calls of the source. The calls are words filed in the database; no cut-off is given here.

Assays:
[1] = biological target: T1, Probable flavin-dependent thymidylate synthase (Paramecium bursaria Chlorella virus 1, UniProt O41156); experiment: Inhibition of PBCV1 Thymidylate synthase X
T1 sequence (O41156 whole entry): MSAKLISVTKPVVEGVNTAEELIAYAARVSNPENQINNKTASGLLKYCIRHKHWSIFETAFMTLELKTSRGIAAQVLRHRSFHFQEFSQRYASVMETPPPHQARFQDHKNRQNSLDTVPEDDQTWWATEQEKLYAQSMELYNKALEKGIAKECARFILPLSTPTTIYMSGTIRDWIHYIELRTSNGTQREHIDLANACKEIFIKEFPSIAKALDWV

[2] = biological target: T2, Probable flavin-dependent thymidylate synthase (Paramecium bursaria Chlorella virus 1) (UniProt O41156); experiment: Inhibition of PBCV1 Thymidylate synthase X in presence of triton X100 surfactant
T2 sequence (whole entry): T1 sequence (O41156 whole entry)

[3] = biological target: T2, Probable flavin-dependent thymidylate synthase (Paramecium bursaria Chlorella virus 1); experiment: Inhibition of PBCV1 Thymidylate synthase X in presence of bovine serum albumin surfactant
[4] = biological target: T2, Probable flavin-dependent thymidylate synthase (Paramecium bursaria Chlorella virus 1); experiment: Reversal of inhibition of PBCV1 Thy X at 20 uM in presence of dUMP

| Ki [1] | IC50 [1] | Activity [2] | Activity [3] | Activity [4] | SMILES |
| --- | --- | --- | --- | --- | --- |
| 3500 nM | – | – | – | – | CCOC(=O)[C@@H]1CSC(c2ccccc2)N1C(=O)c1cn(CCCCCCCO)nn1 (stereo partly drawn) |
| 57 nM | 57 nM | Active | Active | inactive | CCOC(=O)[C@@H]1CSC(c2ccccc2)N1C(=O)c1cn(CCCNC(=O)C(F)(F)F)nn1 (stereo partly drawn) |

Further lines, the molecule ahead of its results:

| SMILES | Ki [1] | IC50 [1] | Activity [2] | Activity [3] | Activity [4] |
| --- | --- | --- | --- | --- | --- |
| CCCCCCC(=O)N(CC(=O)O)C[C@@H]1CSC(c2ccccc2)N1C(=O)c1ccccc1 (stereo partly drawn) | 130 nM | 130 nM | Active | Active | Active |
| CCOC(=O)[C@@H]1CSC(c2ccccc2)N1C(=O)c1cn(CCc2ccc(F)cc2)nn1 (stereo partly drawn) | 2000 nM | – | – | – | – |
| CCOC(=O)[C@@H]1CSC(c2ccccc2)N1C(=O)c1cn(CCc2ccsc2)nn1 (stereo partly drawn) | 1000 nM | – | – | – | – |
